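Cells were grown in 96-well plates and exposed to each compound for 48 hours at five concentrations; endpoints were interpolated linearly between bracketing concentrations, or set to the highest concentration if not reached. GI50 = concentration required for 50% inhibition of growth. TGI: concentration producing complete growth inhibition.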
Tested on: MDA-MB-468 breast
Experiment: inhibition of tumour cell growth, NCI panel, 48 h

## O=C1/C(=C/c2ccc(F)cc2)COc2ccc(O)c(O)c21
  GI50: 2280 nM
  TGI: 5.6 µM

## O=C(O)CCCN1C(=O)/C(=C/C(Cl)=C/c2ccccc2)SC1=S
  GI50: 1180 nM
  TGI: 3.29 µM

## Nc1c(C(=O)c2cccc(-c3cccnc3)c2)cnn1-c1ccc(F)cc1
  GI50: > 25000 nM
  TGI: > 25 µM

## CCN1C(=O)N(CC)C2C1NN=c1s/c(=C3\C(=O)Nc4ccccc43)c(=O)n12 (configuration not stated)
  GI50: 297 nM
  TGI: 2.82 µM

## COc1ccc(-c2nc(NC(=O)CS(=O)(=O)c3ccc(F)cc3)sc2C)cc1
  GI50: 7050 nM
  TGI: 53.8 µM

## O=C(CCN1CCCC1)Nc1ccc2c(Nc3ccc(F)cc3)c3ccccc3nc2c1
  GI50: 1260 nM
  TGI: 2.8 µM

## C[C@H]1C[C@@H](n2c(Nc3ccc(OC(F)(F)F)cc3)nc3cc(CCC(=O)O)ccc32)CC(C)(C)C1
  GI50: 15700 nM
  TGI: 38.6 µM

## CCN(Cc1ccc(Cl)c(Cl)c1)c1ccc2nc(N)nc(N)c2c1C
  GI50: 13.8 nM
  TGI: 1.3 µM

## CN(C)Cc1ccc(NC(=O)c2cncc(C#Cc3cnc(N)c4ncccc34)c2)cc1C(F)(F)F
  GI50: 1560 nM
  TGI: 3.21 µM

## CN(C)S(=O)(=O)c1cccc(C(=O)Nc2nc(-c3ccc(F)c(F)c3)cs2)c1
  GI50: 3790 nM
  TGI: 97.5 µM

## Cc1cccc(CNc2c3ccccc3nc3ccccc23)c1
  GI50: 1580 nM
  TGI: 3.63 µM

## CN1CCN(C2=C(Cl)C(=O)c3ccccc3C2=O)CC1
  GI50: 1110 nM
  TGI: 2.61 µM

## CCCC(=O)Oc1ccc(/C(=C(\C)c2ccc(Cl)cc2)c2ccc(OCCN(CC)CC)cc2)cc1
  GI50: 1530 nM
  TGI: 3.67 µM

## Nc1[nH]nc(Nc2ccccc2)c1-c1nc2ccccc2s1
  GI50: 2230 nM
  TGI: 5.98 µM

## O=C(CSSCC(=O)c1ccc(Cl)cc1)c1ccc(Cl)cc1
  GI50: 2260 nM
  TGI: 5.98 µM

## COc1ccc(Cn2cc3c(c2-c2ccccc2)CCc2cnoc2-3)cc1
  GI50: 79.5 nM
  TGI: > 100 µM

## COc1ccc(/C=C\c2cc(OC)c(OC)c(OC)c2)cc1NC(=O)/C=C/c1ccc(OC)c(OC)c1
  GI50: 1900 nM
  TGI: > 100 µM

## COc1ccc(CCN2CCCn3c2nc2ccccc2c3=O)cc1
  GI50: 39.2 nM
  TGI: 43.9 µM

## O=C(CSc1nc2ccccc2c(=O)n1-c1ccc(Cl)cc1)N/N=C/c1ccc(Oc2ccc(Cl)cc2)cc1
  GI50: 2080 nM
  TGI: 5.08 µM

## COC(=O)CNC(=O)C(=O)c1c(O)c(O)c(C(C)C)c2cc(C)c(-c3c(C)cc4c(C(C)C)c(O)c(O)c(C(=O)C(=O)NCC(=O)OC)c4c3O)c(O)c12
  GI50: 1460 nM
  TGI: 4.8 µM

## CNC(=O)c1c(NC(=O)c2ccccc2C(F)(F)F)sc2c1CCC(=O)C2
  GI50: 1810 nM
  TGI: 5.36 µM

Reference: PubChem BioAssay (NCI)
